In assay [1] the target is Estrogen receptor (Rattus norvegicus, UniProt P06211+Q62986). The assay can be described thus: Binding affinity for rat estrogen receptor. It is filed as protein assay.
Assay [2] has as its system Ishikawa. In words: Agonist activity in Ishikawa human endometrial cells. It is filed as functional, cell-based.
Assay [3] concerns the target Estrogen receptor (Rattus norvegicus) (UniProt P06211+Q62986). The assay can be described thus: Relative efficacy for estrogen receptor compared to estradiol. It is filed as protein assay.

In assay [1], `CC[C@@H](c1ccc(O)cc1)[C@H](CCCCn1cc(C(=O)O)c(=O)[nH]1)c1ccc(O)cc1` showed a 50% inhibitory concentration (IC50) of 5000 nM. The compound also showed an EC50 in assay [2] of 1100 nM.
In assay [1], `CC[C@H](c1ccc(O)cc1)[C@@H](CC)c1ccc(O)cc1` [HEXESTROL] had an IC50 of 2 nM. Besides, in assay [3], the Emax is 80%. The EC50 in assay [2] is 0.1 nM.
As to `CC[C@@H](c1ccc(O)cc1)[C@H](Cn1cc(C(=O)O)c(=O)[nH]1)c1ccc(O)cc1`, the half-maximal inhibitory concentration (IC50) in assay [1] amounted to 100000 nM. Besides, in assay [2], a half-maximal response (EC50) required 20000 nM.
`CC[C@@H](c1ccc(O)cc1)[C@H](CCCCn1cc(C(=O)O)cn1)c1ccc(O)cc1` displayed an EC50 in assay [2] of 1600 nM.

Broadly, the IC50 is the concentration that inhibits the measured activity by half. Usually EC50 stands for the concentration that produces a half-maximal response. As usually defined, the Emax is the greatest response seen or fitted, relative to the assay's reference.
